Like-named read-outs stand apart in the source and are kept apart here.
How the values were obtained:
albumin = target: T1, albumin (Homo sapiens, UniProt P02768); details: once in the circulation; cited from earlier work
T1 construct: host or cells: endogenous albumin of the bloodstream

diabetes subjects = assay: Effect of cooling the injection site on blood glucose after basal insulin (LANTUS) injection (FIG. 20); assay type: in vivo, human
Procedure: FIG. 20 is a graph showing results of a study of the effect of applying cooling for regulating the absorption of a drug (insulin) on an analyte level (insulin and/or blood glucose level) over time measured in minutes.
The diabetes subjects under fasting conditions injected their usual basal insulin dose (LANTUS) which is intended to keep their blood glucose level stable. […] Cooling commenced at 2 hours and was applied for 3 hours successfully raising he blood glucose level back to 142 mg/dl.

Type I diabetes subjects = assay: Effect of heating or cooling the injection site on blood glucose after basal insulin (LANTUS) injection (FIG. 19); assay type: in vivo, human; details: for ΔBG_2H, blood glucose excursion change from control / ΔBG_3H, blood glucose excursion change from control / ΔBG_4H, blood glucose excursion change from control: fasting
Source text: FIG. 19 is a graph showing results of a study of the effect of applying a treatment (cooling or heating) for regulating the absorption of a drug (insulin) on an analyte level (insulin and/or blood glucose level) over time measured in minutes.
The experiment tests the effect of treatment (e.g. cooling and heating) at the injection site on insulin and glucose blood levels during nine hours following long acting, basal insulin (LANTUS) injection. The tested treatments included heating the skin over the injection site to 40° C. and cooling the skin over the injection site to 20° C. Each subject underwent three procedures during three different days including control, heating and cooling in random order, thus each subject served as his/her own control.
Type I diabetes subjects under fasting conditions injected their usual basal insulin dose which is intended to keep their blood glucose level stable. Two hours after injection a stabilization period commenced in which a subject's blood glucose levels was adjusted to a target blood glucose level using IV insulin or IV glucose administration. The starting glucose level was 150 mg/dl±20 mg/dl. […] In the two testing days the heating or cooling elements were attached to the injection site and heating or cooling was started for a period of four hours and no intervention (besides the treatment, i.e. cooling or heating) was performed during this period. The procedure continued for another two hours without intervention. On the control day no intervention or treatment was applied. During the whole procedure blood samples were collected for blood glucose and insulin concentration measurements every 20 minutes. Safety limits of the study were 75 mg/dl as the low limit, and 250 mg/dl as the high limit. If the subject's blood glucose level was below 75 mg/dl, then a 10% glucose solution was given intravenously to increase the subject's blood glucose level. If the subject's blood glucose level was above 250 mg/dl then IV insulin was given to reduce blood glucose level.

[1] = cited from earlier work

T1 sequence (P02768 25-609): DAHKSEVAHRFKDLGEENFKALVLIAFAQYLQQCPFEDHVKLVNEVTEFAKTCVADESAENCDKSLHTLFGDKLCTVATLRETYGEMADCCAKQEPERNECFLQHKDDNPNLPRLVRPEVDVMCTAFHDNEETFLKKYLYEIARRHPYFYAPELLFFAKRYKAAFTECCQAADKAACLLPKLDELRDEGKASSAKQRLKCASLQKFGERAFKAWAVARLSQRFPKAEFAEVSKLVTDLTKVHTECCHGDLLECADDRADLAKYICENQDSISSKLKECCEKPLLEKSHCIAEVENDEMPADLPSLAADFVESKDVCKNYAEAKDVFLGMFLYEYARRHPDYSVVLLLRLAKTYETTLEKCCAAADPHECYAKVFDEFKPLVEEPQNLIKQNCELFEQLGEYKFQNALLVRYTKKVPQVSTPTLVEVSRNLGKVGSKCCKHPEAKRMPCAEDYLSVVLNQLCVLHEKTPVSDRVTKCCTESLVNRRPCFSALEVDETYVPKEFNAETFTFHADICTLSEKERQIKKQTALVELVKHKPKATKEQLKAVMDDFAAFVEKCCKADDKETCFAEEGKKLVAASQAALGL

insulin detemir
albumin bound (albumin): 98%

insulin glargine [LANTUS]
blood glucose level (diabetes subjects; after cooling applied for 3 hours, commenced at 2 hours): 142 mg/dL
initial blood glucose level (diabetes subjects; at injection, fasting): 143 mg/dL
blood glucose level (diabetes subjects; within 2 hours after injection, before cooling): 94 mg/dL
increase in blood glucose levels (Type I diabetes subjects; applying cooling to the injection site (text b295)): 25 mg/dL
average decrease in blood glucose compared to no treatment at all (Type I diabetes subjects; applying heat to the injection site (text b295)): 40 mg/dL
ΔBG_2H, blood glucose excursion change from control (Type I diabetes subjects; cooling skin over injection site to 20° C., after 2 hours): +30 mg/dl
ΔBG_3H, blood glucose excursion change from control (Type I diabetes subjects; cooling skin over injection site to 20° C., after 3 hours): +42 mg/dl
ΔBG_4H, blood glucose excursion change from control (Type I diabetes subjects; cooling skin over injection site to 20° C., after 4 hours): +50 mg/dl
blood glucose levels over time (FIG. 19) (Type I diabetes subjects; cooling the injection site): increased
increase in blood glucose compared to no intervention (Type I diabetes subjects; cooling the injection site, after 2 hours): about 42 mg/dl
increase in blood glucose compared to no intervention (Type I diabetes subjects; cooling the injection site, after 3 hours): ~59 mg/dL
increase in blood glucose compared to no intervention (Type I diabetes subjects; cooling the injection site, after 4 hours): ~65 mg/dL
ΔBG_2H, blood glucose excursion change from control (Type I diabetes subjects; heating skin over injection site to 40° C., after 2 hours): -29 mg/dL
ΔBG_3H, blood glucose excursion change from control (Type I diabetes subjects; heating skin over injection site to 40° C., after 3 hours): -32 mg/dL
ΔBG_4H, blood glucose excursion change from control (Type I diabetes subjects; heating skin over injection site to 40° C., after 4 hours): -32 mg/dL
blood glucose levels over time (FIG. 19) (Type I diabetes subjects; heating the injection site): decreased
average decrease in blood glucose compared to no intervention (Type I diabetes subjects; heating the injection site, after 2 hours): 15 mg/dL
average decrease in blood glucose compared to no intervention (Type I diabetes subjects; heating the injection site, after 3 hours): 21 mg/dL
average decrease in blood glucose compared to no intervention (Type I diabetes subjects; heating the injection site, after 4 hours): 26 mg/dL
blood glucose levels over time (FIG. 19) (Type I diabetes subjects; no intervention applied to the injection site): stable around the base line
solubility ([1]; neutral pH (pH 7.4)): forms precipitates
solubility ([1]; pH 4): soluble
